Structures are written as SMILES. Counter-ions that a name gives are not always drawn.

The source of these data is patent US20060019980A1, “Methods for treating or preventing erectile dysfunction or urinary incontinence” (Inotek Pharmaceutical, Corp., priority 2004, published 2006).

This experiment has as its system male Sprague-Dawley rats. The experiment in a line: cavernous nerve crush injury rat model: erectile function (ICP, ICP/MAP) on cavernosal nerve stimulation. Format: in vivo. As to the method: Experiments were conducted in male Sprague-Dawley rats according to previously published methods for forceps-induced nerve crush injury and erectile function measurements (Rehman, J., et al., Urology 51:640-644, 1998; Sezen, S. F., et al., Int J. Impot. Res. 14:506-12, 2002). Subjects were anesthetized with Phenobarbital. The prostate of the subjects was exposed and the cavernosal nerve was clipped on either side with a forceps to induce mechanical injury (crush). This rat model mimics the nerve injury that develops during human male prostatectomy, leading to nerve injury and subsequent erectile dysfunction. Subjects were studied 2 weeks after the injury. Two groups of subjects were used, one group treated with vehicle and one group treated with compound 8l methanesulfonate salt. Compound 8l methanesulfonate salt was injected at 30 mg/kg i.v. immediately before the crush injury, and on the following day at the same dose. Thereafter, for 12 days, subjects were treated with 60 mg/kg compound 8l methanesulfonate salt intraperitoneally. At 2 weeks, subjects were re-anesthetized and measured for mean arterial blood pressure (MAP) and intracavernosal pressure (ICP). Cavernosal nerve stimulation was conducted at 5 and 7.5 V using a square pulse stimulator for 30 msec. ICP was determined as the area under curve (mmHg×sec). In addition, IPC/MAP ratios were determined.

Turning to `O=c1[nH]c2c(c3ccccc13)Cc1cc(S(=O)(=O)NCCCN3CCOCC3)ccc1-2` [Compound 8l methanesulfonate salt], the erectile function entry (rat model that mimics the nerve injury that develops during human male prostatectomy, versus vehicle) was “improves erectile function”. Besides, the “ICP (intracavernosal pressure, area under curve)” value (rats 2 weeks after cavernous nerve crush injury, 30 mg/kg i.v. immediately before injury and next day, then 60 mg/kg i.p. for 12 days, cavernosal nerve stimulation at 5 and 7.5 V, mean ± SEM, n = 14-16, *p < 0.05, vehicle 1124 ± 212, normal approx. 4000) was 1471 ± 151* mmHg × sec. For the setting “rats 2 weeks after cavernous nerve crush injury, 30 mg/kg i.v. immediately before injury and next day, then 60 mg/kg i.p. for 12 days, mean ± SEM, n = 14-16, *p < 0.05, vehicle 0.16 ± 0.03, normal approx. 0.8-0.9”, the ICP/MAP ratio is reported as 0.23 ± 0.02*.
